{"source": "patent US20230106943A1", "about": "“ENGINEERED ANTIMICROBIAL PEPTIDES AND USAGE THEREOF” (Peptilogics, Inc., priority 2021, published 2023)", "experiment": "Example 4 stability of concentrated solutions: HPLC-UV Assay/RS (method 78917)", "assay_type": "physicochemical", "procedure": "The peptide formulation of SEQ ID NO: 1 dissolved in a saline solution with a pH of 5.0±0.1 was tested for stability under either −20° C. or 40° C. with 75% relative humidity (RH). […]", "key": {"[1]": {"conditions": "15.3 mg/mL solution, 40° C. and 75% RH, 1 Month"}, "[2]": {"conditions": "15.3 mg/mL solution, 40° C. and 75% RH, 2 Month"}, "[3]": {"conditions": "15.3 mg/mL solution, 40° C. and 75% RH, 3 Month"}, "[4]": {"conditions": "15.3 mg/mL solution, 40° C. and 75% RH, 6 Month"}, "[5]": {"conditions": "15.3 mg/mL solution, −20° C., 0 Month"}, "[6]": {"conditions": "15.3 mg/mL solution, −20° C., 1 Month"}, "[7]": {"conditions": "15.3 mg/mL solution, −20° C., 2 Month"}, "[8]": {"conditions": "15.3 mg/mL solution, −20° C., 3 Month"}, "[9]": {"conditions": "15.3 mg/mL solution, −20° C., 6 Month"}, "[10]": {"conditions": "15.3 mg/mL solution, −20° C., 9 Month"}, "[11]": {"conditions": "36.7 mg/mL solution, 40° C. and 75% RH, 1 Month"}, "[12]": {"conditions": "36.7 mg/mL solution, 40° C. and 75% RH, 2 Month"}, "[13]": {"conditions": "36.7 mg/mL solution, 40° C. and 75% RH, 3 Month"}, "[14]": {"conditions": "36.7 mg/mL solution, 40° C. and 75% RH, 6 Month"}, "[15]": {"conditions": "36.7 mg/mL solution, −20° C., 0 Month"}, "[16]": {"conditions": "36.7 mg/mL solution, −20° C., 1 Month"}}, "note": "No end group written: not given here."}
{"substance": "RRWVRRVRRVWRRVVRVVRRWVRR-NH2 [SEQ ID NO: 1]", "values": [{"measurement": "HPLC-UV Assay/RS % Assay", "setting": "[1]", "result": 96.0, "unit": "%"}, {"measurement": "HPLC-UV Assay/RS % Purity", "setting": "[1]", "result": 99, "unit": "%"}, {"measurement": "HPLC-UV Assay/RS % Total Impurities", "setting": "[1]", "result": 1.0, "unit": "%"}, {"measurement": "RRT 1.02 Mean % Area", "setting": "[1]", "result": 1.0, "unit": "%"}, {"measurement": "RRT […] area (Inj-1)", "setting": "[1]", "result": 0.97, "unit": "%"}, {"measurement": "RRT […] area (Inj-2)", "setting": "[1]", "result": 0.95, "unit": "%"}, {"measurement": "SEQ ID NO: 1 % area (Inj-1)", "setting": "[1]", "result": 99.03, "unit": "%"}, {"measurement": "SEQ ID NO: 1 % area (Inj-2)", "setting": "[1]", "result": 99.05, "unit": "%"}, {"measurement": "SEQ ID NO: 1 Mean % Area", "setting": "[1]", "result": 99.0, "unit": "%"}, {"measurement": "HPLC-UV Assay/RS % Assay", "setting": "[2]", "result": 103.8, "unit": "%"}, {"measurement": "HPLC-UV Assay/RS % Purity", "setting": "[2]", "result": 99, "unit": "%"}, {"measurement": "HPLC-UV Assay/RS % Total Impurities", "setting": "[2]", "result": 1.4, "unit": "%"}, {"measurement": "HPLC-UV Assay/RS Impurities RRT/%, RRT 1.02", "setting": "[2]", "result": "1.02/1.0%"}, {"measurement": "HPLC-UV Assay/RS Impurities RRT/%, RRT 1.08", "setting": "[2]", "result": "1.08/0.2%"}, {"measurement": "HPLC-UV Assay/RS Impurities RRT/%, RRT 1.10", "setting": "[2]", "result": "1.10/0.2%"}, {"measurement": "HPLC-UV Assay/RS % Assay", "setting": "[3]", "result": 96.8, "unit": "%"}, {"measurement": "HPLC-UV Assay/RS % Purity", "setting": "[3]", "result": 99, "unit": "%"}, {"measurement": "HPLC-UV Assay/RS % Total Impurities", "setting": "[3]", "result": 1.3, "unit": "%"}, {"measurement": "HPLC-UV Assay/RS Impurities RRT/%, RRT 1.02", "setting": "[3]", "result": "1.02/1.1%"}, {"measurement": "HPLC-UV Assay/RS Impurities RRT/%, RRT 1.25", "setting": "[3]", "result": "1.25/0.2%"}, {"measurement": "% assay", "setting": "[4]", "result": 97.5, "unit": "%"}, {"measurement": "HPLC-UV Assay/RS % Purity", "setting": "[4]", "result": 98, "unit": "%"}, {"measurement": "HPLC-UV Assay/RS % Total Impurities", "setting": "[4]", "result": 2.5, "unit": "%"}, {"measurement": "HPLC-UV Assay/RS % Assay", "setting": "[5]", "result": 99.8, "unit": "%"}, {"measurement": "HPLC-UV Assay/RS % Purity", "setting": "[5]", "result": 99.0, "unit": "%"}, {"measurement": "HPLC-UV Assay/RS % Total Impurities", "setting": "[5]", "result": 1.0, "unit": "%"}, {"measurement": "RRT 1.02 Mean % Area", "setting": "[5]", "result": 1.0, "unit": "%"}, {"measurement": "RRT […] area (Inj-1)", "setting": "[5]", "result": 1.05, "unit": "%"}, {"measurement": "RRT […] area (Inj-2)", "setting": "[5]", "result": 1.03, "unit": "%"}, {"measurement": "SEQ ID NO: 1 % area (Inj-1)", "setting": "[5]", "result": 98.95, "unit": "%"}, {"measurement": "SEQ ID NO: 1 % area (Inj-2)", "setting": "[5]", "result": 98.97, "unit": "%"}, {"measurement": "SEQ ID NO: 1 Mean % Area", "setting": "[5]", "result": 99.0, "unit": "%"}, {"measurement": "HPLC-UV Assay/RS % Assay", "setting": "[6]", "result": 103.4, "unit": "%"}, {"measurement": "HPLC-UV Assay/RS % Purity", "setting": "[6]", "result": 99, "unit": "%"}, {"measurement": "HPLC-UV Assay/RS % Total Impurities", "setting": "[6]", "result": 0.9, "unit": "%"}, {"measurement": "RRT 1.02 Mean % Area", "setting": "[6]", "result": 0.9, "unit": "%"}, {"measurement": "RRT […] area (Inj-1)", "setting": "[6]", "result": 0.88, "unit": "%"}, {"measurement": "RRT […] area (Inj-2)", "setting": "[6]", "result": 0.87, "unit": "%"}, {"measurement": "SEQ ID NO: 1 % area (Inj-1)", "setting": "[6]", "result": 99.12, "unit": "%"}, {"measurement": "SEQ ID NO: 1 % area (Inj-2)", "setting": "[6]", "result": 99.13, "unit": "%"}, {"measurement": "SEQ ID NO: 1 Mean % Area", "setting": "[6]", "result": 99.1, "unit": "%"}, {"measurement": "HPLC-UV Assay/RS % Assay", "setting": "[7]", "result": 106.0, "unit": "%"}, {"measurement": "HPLC-UV Assay/RS % Purity", "setting": "[7]", "result": 99, "unit": "%"}, {"measurement": "HPLC-UV Assay/RS % Total Impurities", "setting": "[7]", "result": 0.9, "unit": "%"}, {"measurement": "HPLC-UV Assay/RS Impurities RRT/%, RRT 1.02", "setting": "[7]", "result": "1.02/0.9%"}, {"measurement": "HPLC-UV Assay/RS % Assay", "setting": "[8]", "result": 99.7, "unit": "%"}, {"measurement": "HPLC-UV Assay/RS % Purity", "setting": "[8]", "result": 99, "unit": "%"}, {"measurement": "HPLC-UV Assay/RS % Total Impurities", "setting": "[8]", "result": 0.9, "unit": "%"}, {"measurement": "HPLC-UV Assay/RS Impurities RRT/%, RRT 1.02", "setting": "[8]", "result": "1.02/0.9%"}, {"measurement": "HPLC-UV Assay/RS % Assay", "setting": "[9]", "result": 102.1, "unit": "%"}, {"measurement": "HPLC-UV Assay/RS % Purity", "setting": "[9]", "result": 99, "unit": "%"}, {"measurement": "HPLC-UV Assay/RS % Total Impurities", "setting": "[9]", "result": 0.9, "unit": "%"}, {"measurement": "HPLC-UV Assay/RS Impurities RRT/%, RRT 1.02", "setting": "[9]", "result": "1.02/0.9%"}, {"measurement": "HPLC-UV Assay/RS % Assay", "setting": "[10]", "result": 101.0, "unit": "%"}, {"measurement": "HPLC-UV Assay/RS % Purity", "setting": "[10]", "result": 100, "unit": "%"}, {"measurement": "HPLC-UV Assay/RS % Total Impurities", "setting": "[10]", "result": 0.3, "unit": "%"}, {"measurement": "HPLC-UV Assay/RS Impurities RRT/%, RRT 1.01", "setting": "[10]", "result": "1.01/0.3%"}, {"measurement": "% Purity", "setting": "[11]", "result": 99, "unit": "%"}, {"measurement": "% Total Impurities", "setting": "[11]", "result": 0.9, "unit": "%"}, {"measurement": "HPLC-UV % Assay", "setting": "[11]", "result": 97.5, "unit": "%"}, {"measurement": "RRT 1.02 impurity % area (Inj-1)", "setting": "[11]", "result": 0.94, "unit": "% area"}, {"measurement": "RRT 1.02 impurity % area (Inj-2)", "setting": "[11]", "result": 0.91, "unit": "% area"}, {"measurement": "RRT 1.02 impurity Mean % Area", "setting": "[11]", "result": 0.9, "unit": "% Area"}, {"measurement": "SEQ ID NO: 1 peak % area (Inj-1)", "setting": "[11]", "result": 99.06, "unit": "% area"}, {"measurement": "SEQ ID NO: 1 peak % area (Inj-2)", "setting": "[11]", "result": 99.09, "unit": "% area"}, {"measurement": "SEQ ID NO: 1 peak Mean % Area", "setting": "[11]", "result": 99.1, "unit": "% Area"}, {"measurement": "% Purity", "setting": "[12]", "result": 99, "unit": "%"}, {"measurement": "% Total Impurities", "setting": "[12]", "result": 1.2, "unit": "%"}, {"measurement": "HPLC-UV % Assay", "setting": "[12]", "result": 101.7, "unit": "%"}, {"measurement": "% Purity", "setting": "[13]", "result": 99, "unit": "%"}, {"measurement": "% Total Impurities", "setting": "[13]", "result": 1.5, "unit": "%"}, {"measurement": "HPLC-UV % Assay", "setting": "[13]", "result": 97.3, "unit": "%"}, {"measurement": "% Purity", "setting": "[14]", "result": 97, "unit": "%"}, {"measurement": "% Total Impurities", "setting": "[14]", "result": 3.0, "unit": "%"}, {"measurement": "HPLC-UV % Assay", "setting": "[14]", "result": 94.8, "unit": "%"}, {"measurement": "HPLC-UV Assay/RS % Assay", "setting": "[15]", "result": 97.9, "unit": "%"}, {"measurement": "HPLC-UV Assay/RS % Purity", "setting": "[15]", "result": 99.0, "unit": "%"}, {"measurement": "HPLC-UV Assay/RS % Total Impurities", "setting": "[15]", "result": 1.0, "unit": "%"}, {"measurement": "RRT 1.02 Mean % Area", "setting": "[15]", "result": 1.0, "unit": "%"}, {"measurement": "RRT […] area (Inj-1)", "setting": "[15]", "result": 1.02, "unit": "%"}, {"measurement": "RRT […] area (Inj-2)", "setting": "[15]", "result": 1.03, "unit": "%"}, {"measurement": "SEQ ID NO: 1 % area (Inj-1)", "setting": "[15]", "result": 98.98, "unit": "%"}, {"measurement": "SEQ ID NO: 1 % area (Inj-2)", "setting": "[15]", "result": 98.97, "unit": "%"}, {"measurement": "SEQ ID NO: 1 Mean % Area", "setting": "[15]", "result": 99.0, "unit": "%"}, {"measurement": "HPLC-UV Assay/RS % Assay", "setting": "[16]", "result": 98.6, "unit": "%"}, {"measurement": "HPLC-UV Assay/RS % Purity", "setting": "[16]", "result": 99, "unit": "%"}, {"measurement": "HPLC-UV Assay/RS % Total Impurities", "setting": "[16]", "result": 0.9, "unit": "%"}, {"measurement": "RRT 1.02 Mean % Area", "setting": "[16]", "result": 0.9, "unit": "%"}, {"measurement": "RRT […] area (Inj-1)", "setting": "[16]", "result": 0.87, "unit": "%"}, {"measurement": "RRT […] area (Inj-2)", "setting": "[16]", "result": 0.88, "unit": "%"}]}
